Data from ChEMBL document CHEMBL3046035, “Synthesis and biological evaluation of novel 4,5-dihydropyrazole derivatives as potent anticancer and antimicrobial agents” (Med Chem Res, 2013).
≈ marks a conversion by molar mass, not a printed value.

Key:
[1] = system: Aspergillus niger; experiment: Antimicrobial activity against Aspergillus niger ATCC 6275 assessed as growth inhibition after 24 hr by broth microdilution method; type: functional; conditions: ATCC 6275, 24 h
[2] = system: Candida tropicalis; experiment: Antimicrobial activity against Candida tropicalis ATCC 1369 assessed as growth inhibition after 24 hr by broth microdilution method; type: functional; conditions: ATCC 1369, 24 h
[3] = system: Saccharomyces cerevisiae; experiment: Antimicrobial activity against Saccharomyces cerevisiae ATCC 9763 assessed as growth inhibition after 24 hr by broth microdilution method; type: functional; conditions: ATCC 9763, 24 h
[4] = system: Pseudomonas aeruginosa; experiment: Antimicrobial activity against Pseudomonas aeruginosa ATCC 10145 assessed as growth inhibition after 24 hr by broth microdilution method; type: functional; conditions: ATCC 10145, 24 h
[5] = system: Escherichia coli; experiment: Antimicrobial activity against Escherichia coli ATCC 10536 assessed as growth inhibition after 24 hr by broth microdilution method; type: functional; conditions: ATCC 10536, 24 h
[6] = system: Klebsiella pneumoniae; experiment: Antimicrobial activity against Klebsiella pneumoniae ATCC 10031 assessed as growth inhibition after 24 hr by broth microdilution method; type: functional; conditions: ATCC 10031, 24 h
[7] = system: Bacillus subtilis; experiment: Antimicrobial activity against Bacillus subtilis ATCC 60511 assessed as growth inhibition after 24 hr by broth microdilution method; type: functional; conditions: ATCC 60511, 24 h
[8] = system: Enterococcus faecalis; experiment: Antimicrobial activity against Enterococcus faecalis ATCC 14506 assessed as growth inhibition after 24 hr by broth microdilution method; type: functional; conditions: ATCC 14506, 24 h
[9] = system: Staphylococcus aureus; experiment: Antimicrobial activity against Staphylococcus aureus ATCC 11632 assessed as growth inhibition after 24 hr by broth microdilution method; type: functional; conditions: ATCC 11632, 24 h
[10] = system: BGC-823; experiment: Anticancer activity against Homo sapiens (human) BGC823 cells assessed as inhibition of cell viability after 96 hr by MTT assay; type: functional, cell-based; conditions: BGC-823, 96 h
[11] = system: A2780; experiment: Anticancer activity against Homo sapiens (human) A2780 cells assessed as inhibition of cell viability after 96 hr by MTT assay; type: functional, cell-based; conditions: A2780, 96 h
[12] = system: MCF7; experiment: Anticancer activity against Homo sapiens (human) MCF7 cells assessed as inhibition of cell viability after 96 hr by MTT assay; type: functional, cell-based; conditions: MCF7, 96 h
[13] = system: A549; experiment: Anticancer activity against Homo sapiens (human) A549 cells assessed as inhibition of cell viability after 96 hr by MTT assay; type: functional, cell-based; conditions: A549, 96 h
[14] = system: HeLa; experiment: Anticancer activity against Homo sapiens (human) HeLa cells assessed as inhibition of cell viability after 96 hr by MTT assay; type: functional, cell-based

Structure (SMILES)	MIC [1] [µg/mL]	MIC [2] [µg/mL]	MIC [3] [µg/mL]	MIC [4] [µg/mL]	MIC [5] [µg/mL]	MIC [6] [µg/mL]	MIC [7] [µg/mL]	MIC [8] [µg/mL]	MIC [9] [µg/mL]	IC50 [10] [µM]	IC50 [11] [µM]	IC50 [12] [µM]	IC50 [13] [µM]	IC50 [14] [µM]
Fc1cccc(F)c1C1CC(c2ccccc2)=NN1c1nc(-c2ccc(Br)cc2)cs1 (stereo unspecified)	62.5 (≈ 126 µM)	62.5 (≈ 126 µM)	62.5 (≈ 126 µM)	31.2 (≈ 63 µM)	31.2 (≈ 63 µM)	16 (≈ 32.2 µM)	8 (≈ 16.1 µM)	8 (≈ 16.1 µM)	16 (≈ 32.2 µM)	1.34	2.45	2.14	1.93	6.12
Cc1ccc(/C=N/NC(=O)Cc2csc(N3N=C(c4ccccc4)CC3c3c(F)cccc3F)n2)cc1 (stereo unspecified)	16 (≈ 31 µM)	8 (≈ 15.5 µM)	8 (≈ 15.5 µM)	16 (≈ 31 µM)	125 (≈ 242 µM)	125 (≈ 242 µM)	16 (≈ 31 µM)	16 (≈ 31 µM)	125 (≈ 242 µM)	1.45	2.62	1.65	1.5	5.91
O=C1CSC(N2N=C(c3ccccc3)CC2c2c(F)cccc2F)=N1 (stereo unspecified)	31.2 (≈ 87.4 µM)	31.2 (≈ 87.4 µM)	31.2 (≈ 87.4 µM)	16 (≈ 44.8 µM)	62.5 (≈ 175 µM)	16 (≈ 44.8 µM)	31.2 (≈ 87.4 µM)	16 (≈ 44.8 µM)	16 (≈ 44.8 µM)	2.35	5.32	1.94	4.58	6.45
Fc1cccc(F)c1C1CC(c2ccccc2)=NN1C1=NC(c2ccc(Cl)cc2Cl)S1 (stereo unspecified)	8 (≈ 16.9 µM)	62.5 (≈ 132 µM)	16 (≈ 33.7 µM)	125 (≈ 264 µM)	16 (≈ 33.7 µM)	31.2 (≈ 65.9 µM)	31.2 (≈ 65.9 µM)	125 (≈ 264 µM)	125 (≈ 264 µM)	3.31	4.51	1.89	3.25	6.13
Fc1cccc(F)c1C1CC(c2ccccc2)=NN1C1=NC(c2ccccc2)S1 (stereo unspecified)	125 (≈ 308 µM)	31.2 (≈ 77.1 µM)	62.5 (≈ 154 µM)	62.5 (≈ 154 µM)	16 (≈ 39.5 µM)	16 (≈ 39.5 µM)	31.2 (≈ 77.1 µM)	8 (≈ 19.7 µM)	16 (≈ 39.5 µM)	1.97	4.33	1.72	2.11	5.71
O=C(/C=C/c1c(F)cccc1F)c1ccccc1	62.5 (≈ 256 µM)	62.5 (≈ 256 µM)	62.5 (≈ 256 µM)	8 (≈ 32.8 µM)	125 (≈ 512 µM)	125 (≈ 512 µM)	125 (≈ 512 µM)	125 (≈ 512 µM)	31.2 (≈ 128 µM)	–	–	–	–	–
NC(=S)N1N=C(c2ccccc2)CC1c1c(F)cccc1F (stereo unspecified)	62.5 (≈ 197 µM)	31.2 (≈ 98.5 µM)	125 (≈ 394 µM)	31.2 (≈ 98.5 µM)	62.5 (≈ 197 µM)	62.5 (≈ 197 µM)	8 (≈ 25.2 µM)	31.2 (≈ 98.5 µM)	31.2 (≈ 98.5 µM)	1.84	3.62	2.15	2.55	6.25
CCOC(=O)Cc1csc(N2N=C(c3ccccc3)CC2c2c(F)cccc2F)n1 (stereo unspecified)	62.5 (≈ 146 µM)	31.2 (≈ 73.1 µM)	62.5 (≈ 146 µM)	8 (≈ 18.7 µM)	8 (≈ 18.7 µM)	8 (≈ 18.7 µM)	31.2 (≈ 73.1 µM)	31.2 (≈ 73.1 µM)	16 (≈ 37.4 µM)	3.85	3.91	2.11	4.18	6.31
O=C(Cc1csc(N2N=C(c3ccccc3)CC2c2c(F)cccc2F)n1)N/N=C/c1c(F)cccc1F (stereo unspecified)	16 (≈ 29.8 µM)	4 (≈ 7.44 µM)	16 (≈ 29.8 µM)	8 (≈ 14.9 µM)	4 (≈ 7.44 µM)	8 (≈ 14.9 µM)	62.5 (≈ 116 µM)	16 (≈ 29.8 µM)	16 (≈ 29.8 µM)	1.32	2.54	1.2	0.96	4.23
O=C(O)c1cn(C2CC2)c2cc(N3CCNCC3)c(F)cc2c1=O [CIPROFLOXACIN]	–	–	–	5 (≈ 15.1 µM)	≤ 1	≤ 1	≤ 1	≤ 5	≤ 5	–	–	–	–	–
OC(Cn1cncn1)(Cn1cncn1)c1ccc(F)cc1F [FLUCONAZOLE]	≤ 1	≤ 1	≤ 1	–	–	–	–	–	–	–	–	–	–	–
CCn1cc(C(=O)O)c(=O)c2cc(F)c(N3CCNCC3)cc21 [NORFLOXACIN]	–	–	–	5 (≈ 15.7 µM)	≤ 1	≤ 1	≤ 1	5 (≈ 15.7 µM)	5 (≈ 15.7 µM)	–	–	–	–	–
